Experimental data reported in US20180200257A1, “METHODS FOR THE TREATMENT OF INFLAMMATORY DISORDERS” (Galapagos NV, priority 2015, published 2018).

Test system: Subjects With Active Crohn's Disease With Evidence of Mucosal Ulceration
Assay: Study 3 - CRP levels (pharmacodynamics)
Assay type: in vivo, human
Conditions: 200 mg; week 10; LOCF
Excerpt: Double-Blind, Randomized, Placebo-Controlled, Multi-Centre Study to Investigate the Efficacy and Safety of Compound 1 in Subjects With Active Crohn's Disease With Evidence of Mucosal Ulceration. This is a double-blind, randomized, placebo-controlled, multi-centre Phase 2 study to investigate the efficacy and safety of Compound 1 administered once daily for the treatment of active CD with evidence of mucosal ulceration. The pharmacokinetics (including a PK substudy) and pharmacodynamics of Compound 1 and metabolite in CD will also be characterised. A total of 180 eligible subjects will be randomized to receive Compound 1 or placebo in addition to their stable background treatment (eg, corticosteroids, aminosalicylates, or CD-related antibiotics). The study will consist of 2 parts, with total treatment duration of 20 weeks. Randomization in Part 1 will be stratified according the subject's previous anti-TNF exposure/response, CRP level at Screening, and oral corticosteroid use at visit Day −1. After the first 10 weeks of treatment in Part 1, patients will be re-randomized for Part 2 as shown in the diagram below and will be stratified according to the subject's clinical response, previous anti-TNF exposure/response, and oral corticosteroid use at visit Day -1. [table] CRP determination is available at Quest Diagnostics, Clinical Trials, Quest House, 125-135 Staines Road, Hounslow, Middlesex, TW3 3JB, United Kingdom under Catalogue n#86140. The determination of CRP is made using Immunoturbidimetric assay for the in vitro quantitative determination of CRP in human serum and plasma on Roche/Hitachi cobas c systems, wherein human CRP agglutinates with latex particles coated with monoclonal anti-CRP antibodies. The aggregates are determined turbidimetrically (Eda et al., 1998; Price et al., 1987). Human serum and plasma samples CRP determination was done on a Roche/Hitachi Cobas c 301 c 501/502 system which automatically calculate the analyte concentration of each sample. Samples containing precipitates are centrifuged before performing the assay. CRP levels are determined as previously described in section 3.6

## O=C(Nc1nc2cccc(-c3ccc(CN4CCS(=O)(=O)CC4)cc3)n2n1)C1CC1 [Compound 1, cyclopropanecarboxylic acid {5-[4-(1,1-dioxo-thiomorpholin-4-ylmethyl)-phenyl]-[1,2,4]triazolo[1,5-a]pyridin-2-yl}-amide]
  Serum CRP mean, % CFB: 53%
  Serum CRP mean, CFB: -1.0 mg/L
  Serum CRP median, % CFB: −10%
  Serum CRP median, CFB: -0.4 mg/L
  Serum CRP normalizing high to normal (<0.80 mg/dL), % subjects normalizing: 27%
